Measurements: patent publication US10059713B2 (Takeda Pharmaceutical Company Limited, priority 2014, dated 2018)

target: human GPR43 (Homo sapiens (Human), UniProt O15552); test: Ca-Flux functional assay: determination of agonist/positive allosteric modulator (PAM) activity; assay type: cell-based; conditions: CHO-K1 Gα16 cells stably expressing human GPR43; compound added with EC20 sodium acetate; intracellular Ca2+ by FLIPR; does not distinguish agonist from PAM
Method in brief: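 Agonist or PAM activity read as intracellular Ca2+ rise by FLIPR after adding compound plus EC20 acetate, acetate EC20 set from a prior curve. Cells: CHO-K1 Gα16 with stable human GPR43. EC50 from ten-point half-log curves starting 10 μM.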

Sequence of human GPR43 (O15552 whole entry): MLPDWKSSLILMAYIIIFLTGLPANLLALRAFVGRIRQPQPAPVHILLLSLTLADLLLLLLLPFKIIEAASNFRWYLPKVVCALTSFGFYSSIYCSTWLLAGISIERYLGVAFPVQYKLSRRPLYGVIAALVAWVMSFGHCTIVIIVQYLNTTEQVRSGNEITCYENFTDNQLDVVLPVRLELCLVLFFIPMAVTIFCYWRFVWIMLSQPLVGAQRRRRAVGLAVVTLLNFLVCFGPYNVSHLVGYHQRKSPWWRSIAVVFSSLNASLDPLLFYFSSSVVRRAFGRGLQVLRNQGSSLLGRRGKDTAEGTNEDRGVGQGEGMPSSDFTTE

Row | Structure (SMILES) | EC50
1 | Cc1nc(N2CCO[C@@H](C)C2)c2[nH]c(N)c(S(=O)(=O)c3ccc(Cl)cc3F)c2n1 [Example 235, 7-(4-chloro-2-fluorobenzenesulfonyl)-2-methyl-4-[(2S)-2-methylmorpholin-4-yl]-5H-pyrrolo[3,2-d]pyrimidin-6-amine] | 2 nM
2 | CC1CN(c2ncnc3c(Sc4ccccc4)c(N)[nH]c23)CCO1 (stereo not drawn) [Example 236, 4-(2-methylmorpholin-4-yl)-7-(phenylsulfanyl)-5H-pyrrolo[3,2-d]pyrimidin-6-amine] | 42 nM
3 | Cc1nc(N2CCO[C@@H](C)C2)c2[nH]c(N)c(S(=O)(=O)c3ccc(Br)cc3N3CCO[C@@H](C)C3)c2n1 [Example 240, 7-{4-bromo-2-[(2S)-2-methylmorpholin-4-yl]benzenesulfonyl}-2-methyl-4-[(2S)-2-methylmorpholin-4-yl]-5H-pyrrolo[3,2-d]pyrimidin-6-amine] | 125 nM
4 | COc1ccc(S(=O)(=O)c2c(N)[nH]c3c(N4CCOC(C)(C)C4)nc(C)nc23)c(F)c1 [Example 241, 4-(2,2-dimethylmorpholin-4-yl)-7-(2-fluoro-4-methoxybenzenesulfonyl)-2-methyl-5H-pyrrolo[3,2-d]pyrimidin-6-amine] | 2 nM
5 | Cc1nc(OC(C)C)c2[nH]c(N)c(S(=O)(=O)c3ccccc3)c2n1 [Example 242, 7-(benzenesulfonyl)-2-methyl-4-(propan-2-yloxy)-5H-pyrrolo[3,2-d]pyrimidin-6-amine] | 51 nM
6 | CCC(Oc1nc(C)nc2c(S(=O)(=O)c3ccccc3)c(N)[nH]c12)C1CC1 (stereo not drawn) [Example 243, 7-(benzenesulfonyl)-4-(1-cyclopropylpropoxy)-2-methyl-5H-pyrrolo[3,2-d]pyrimidin-6-amine] | 11 nM
7 | CC[C@H](C)Oc1nc(C)nc2c(S(=O)(=O)c3ccccc3)c(N)[nH]c12 [Example 246, 7-(benzenesulfonyl)-4-[(2S)-butan-2-yloxy]-2-methyl-5H-pyrrolo[3,2-d]pyrimidin-6-amine] | 64 nM
8 | Cc1nc(OCC(C)(C)C)c2[nH]c(N)c(S(=O)(=O)c3ccccc3)c2n1 [Example 250, 7-(benzenesulfonyl)-4-(2,2-dimethylpropoxy)-2-methyl-5H-pyrrolo[3,2-d]pyrimidin-6-amine] | 114 nM
9 | Cc1nc(OCC(C)C)c2[nH]c(N)c(S(=O)(=O)c3ccccc3)c2n1 [Example 251, 7-(benzenesulfonyl)-2-methyl-4-(2-methylpropoxy)-5H-pyrrolo[3,2-d]pyrimidin-6-amine] | 49 nM
10 | Cc1nc(OC2CCC2)c2[nH]c(N)c(S(=O)(=O)c3ccccc3)c2n1 [Example 252, 7-(benzenesulfonyl)-4-cyclobutoxy-2-methyl-5H-pyrrolo[3,2-d]pyrimidin-6-amine] | 67 nM
11 | Cc1nc(OC2CCOC(C)(C)C2)c2[nH]c(N)c(S(=O)(=O)c3ccccc3)c2n1 (stereo not drawn) [Example 253, 7-(benzenesulfonyl)-4-[(2,2-dimethyloxan-4-yl)oxy]-2-methyl-5H-pyrrolo[3,2-d]pyrimidin-6-amine] | 133 nM
12 | Cc1nc(OC2CCC(F)(F)CC2)c2[nH]c(N)c(S(=O)(=O)c3ccccc3)c2n1 [Example 254, 7-(benzenesulfonyl)-4-[(4,4-difluorocyclohexyl)oxy]-2-methyl-5H-pyrrolo[3,2-d]pyrimidin-6-amine] | 29 nM
13 | Cc1nc(OC2CCOC2(C)C)c2[nH]c(N)c(S(=O)(=O)c3ccccc3)c2n1 (stereo not drawn) [Example 258, 7-(benzenesulfonyl)-4-[(2,2-dimethyloxolan-3-yl)oxy]-2-methyl-5H-pyrrolo[3,2-d]pyrimidin-6-amine] | 209 nM
14 | Cc1nc(OC2CC(F)(F)C2)c2[nH]c(N)c(S(=O)(=O)c3ccccc3)c2n1 [Example 259, 7-(benzenesulfonyl)-4-(3,3-difluorocyclobutoxy)-2-methyl-5H-pyrrolo[3,2-d]pyrimidin-6-amine] | 66 nM
15 | Cc1nc(OC2CCC2)c2[nH]c(N)c(S(=O)(=O)c3ccccc3F)c2n1 [Example 260, 4-cyclobutoxy-7-(2-fluorobenzenesulfonyl)-2-methyl-5H-pyrrolo[3,2-d]pyrimidin-6-amine] | 10 nM
16 | Cc1nc(N2CCO[C@@H](C)C2)c2[nH]c(N)c(S(=O)(=O)c3ccccc3Cl)c2n1 [Example 261, 7-(2-chlorobenzenesulfonyl)-2-methyl-4-[(2S)-2-methylmorpholin-4-yl]-5H-pyrrolo[3,2-d]pyrimidin-6-amine] | 14 nM
17 | Cc1nc(N2CCOC(CF)C2)c2[nH]c(N)c(S(=O)(=O)c3ccccc3F)c2n1 (stereo not drawn) [Example 266, 7-(2-fluorobenzenesulfonyl)-4-[2-(fluoromethyl)morpholin-4-yl]-2-methyl-5H-pyrrolo[3,2-d]pyrimidin-6-amine] | 3 nM
18 | CC1CN(c2nc(C(F)(F)F)nc3c(S(=O)(=O)c4ccccc4F)c(N)[nH]c23)CCO1 (stereo not drawn) [Example 268, 7-(2-fluorobenzenesulfonyl)-4-(2-methylmorpholin-4-yl)-2-(trifluoromethyl)-5H-pyrrolo[3,2-d]pyrimidin-6-amine] | 17 nM

Continued by falling EC50, values first:

Row | EC50 | Structure (SMILES)
19 | 100 nM | Cc1nc(OC2CCCC2)c2[nH]c(N)c(S(=O)(=O)c3ccccc3)c2n1 [Example 257, 7-(benzenesulfonyl)-4-(cyclopentyloxy)-2-methyl-5H-pyrrolo[3,2-d]pyrimidin-6-amine]
20 | 69 nM | CC1(C)CN(c2nncc3c(S(=O)(=O)c4ccccc4F)c(N)[nH]c23)CCO1 [Example 234, 7-(2,2-dimethylmorpholin-4-yl)-3-(2-fluorobenzenesulfonyl)-1H-pyrrolo[2,3-d]pyridazin-2-amine]
21 | 68 nM | CC1CN(c2nc(C(F)(F)F)nc3c(S(=O)(=O)c4cccc(F)c4)c(N)[nH]c23)CCO1 (stereo not drawn) [Example 265, 7-(3-fluorobenzenesulfonyl)-4-(2-methylmorpholin-4-yl)-2-(trifluoromethyl)-5H-pyrrolo[3,2-d]pyrimidin-6-amine]
22 | 65 nM | Cc1nc(OC(C)C2CCCCC2)c2[nH]c(N)c(S(=O)(=O)c3ccccc3)c2n1 (stereo not drawn) [Example 255, 7-(benzenesulfonyl)-4-(1-cyclohexylethoxy)-2-methyl-5H-pyrrolo[3,2-d]pyrimidin-6-amine]
23 | 57 nM | Cc1nc(OCC2CC2(C)C)c2[nH]c(N)c(S(=O)(=O)c3ccccc3)c2n1 (stereo not drawn) [Example 245, 7-(benzenesulfonyl)-4-[(2,2-dimethylcyclopropyl)methoxy]-2-methyl-5H-pyrrolo[3,2-d]pyrimidin-6-amine]
24 | 45 nM | CSc1nc(N2CCOC(C)C2)c2[nH]c(N)c(S(=O)(=O)c3cccc(F)c3)c2n1 (stereo not drawn) [Example 264, 7-(3-fluorobenzenesulfonyl)-4-(2-methylmorpholin-4-yl)-2-(methylsulfanyl)-5H-pyrrolo[3,2-d]pyrimidin-6-amine]
25 | 31 nM | CC[C@@H](C)Oc1nc(C)nc2c(S(=O)(=O)c3ccccc3)c(N)[nH]c12 [Example 244, 7-(benzenesulfonyl)-4-[(2R)-butan-2-yloxy]-2-methyl-5H-pyrrolo[3,2-d]pyrimidin-6-amine]
26 | 31 nM | Cc1nc(OCC2CCC2)c2[nH]c(N)c(S(=O)(=O)c3ccccc3)c2n1 [Example 249, 7-(benzenesulfonyl)-4-(cyclobutylmethoxy)-2-methyl-5H-pyrrolo[3,2-d]pyrimidin-6-amine]
27 | 22 nM | CCC(CC)Oc1nc(C)nc2c(S(=O)(=O)c3ccccc3)c(N)[nH]c12 [Example 248, 7-(benzenesulfonyl)-2-methyl-4-(pentan-3-yloxy)-5H-pyrrolo[3,2-d]pyrimidin-6-amine]
28 | 18 nM | CSc1nc(N2CCOC(C)C2)c2[nH]c(N)c(S(=O)(=O)c3ccccc3)c2n1 (stereo not drawn) [Example 238, 7-(benzenesulfonyl)-4-(2-methylmorpholin-4-yl)-2-(methylsulfanyl)-5H-pyrrolo[3,2-d]pyrimidin-6-amine]
29 | 18 nM | Cc1nc(OC(C)C2CCC2)c2[nH]c(N)c(S(=O)(=O)c3ccccc3)c2n1 (stereo not drawn) [Example 256, 7-(benzenesulfonyl)-4-(1-cyclobutylethoxy)-2-methyl-5H-pyrrolo[3,2-d]pyrimidin-6-amine]
30 | 16 nM | Cc1nc(OC(C)C2CCCC2)c2[nH]c(N)c(S(=O)(=O)c3ccccc3)c2n1 (stereo not drawn) [Example 247, 7-(benzenesulfonyl)-4-(1-cyclopentylethoxy)-2-methyl-5H-pyrrolo[3,2-d]pyrimidin-6-amine]
31 | 8 nM | Cc1nc(N2CCOC3(CCC3)C2)c2[nH]c(N)c(S(=O)(=O)c3ccccc3F)c2n1 [Example 237, 7-(2-fluorobenzenesulfonyl)-2-methyl-4-{5-oxa-8-azaspiro[3.5]nonan-8-yl}-5H-pyrrolo[3,2-d]pyrimidin-6-amine]
32 | 6 nM | Cc1nc(N2CCOC(C)C2)c2[nH]c(N)c(S(=O)(=O)c3c(F)cccc3F)c2n1 (stereo not drawn) [Example 263, 7-(2,6-difluorobenzenesulfonyl)-2-methyl-4-(2-methylmorpholin-4-yl)-5H-pyrrolo[3,2-d]pyrimidin-6-amine]
33 | 5 nM | Cc1nc(N2CCOC(C)C2)c2[nH]c(N)c(S(=O)(=O)c3ccc(F)cc3F)c2n1 (stereo not drawn) [Example 262, 7-(2,4-difluorobenzenesulfonyl)-2-methyl-4-(2-methylmorpholin-4-yl)-5H-pyrrolo[3,2-d]pyrimidin-6-amine]
34 | 4 nM | COc1ccc(F)c(S(=O)(=O)c2c(N)[nH]c3c(N4CCOC(C)C4)nc(C)nc23)c1 (stereo not drawn) [Example 267, 7-(2-fluoro-5-methoxybenzenesulfonyl)-2-methyl-4-(2-methylmorpholin-4-yl)-5H-pyrrolo[3,2-d]pyrimidin-6-amine]
35 | 3 nM | COc1ccc(S(=O)(=O)c2c(N)[nH]c3c(N4CCO[C@@H](C)C4)nc(C)nc23)c(F)c1 [Example 233, 7-(2-fluoro-4-methoxybenzenesulfonyl)-2-methyl-4-[(2S)-2-methylmorpholin-4-yl]-5H-pyrrolo[3,2-d]pyrimidin-6-amine]
36 | 2 nM | Cc1nc(N2CCO[C@@H](C)C2)c2[nH]c(N)c(S(=O)(=O)c3ccc(Br)cc3F)c2n1 [Example 239, 7-(4-bromo-2-fluorobenzenesulfonyl)-2-methyl-4-[(2S)-2-methylmorpholin-4-yl]-5H-pyrrolo[3,2-d]pyrimidin-6-amine]
